From patent US20240246934A1, “QUINAZOLINE-BASED COMPOUND, COMPOSITION, AND APPLICATION OF QUINAZOLINE-BASED COMPOUND” (BEIJING SCITECH-MQ PHARMACEUTICALS LIMITED, priority 2021, published 2024)
pIC50: −log10 of the molar value.

Key:
[1] = molecular target: Ba/F3 HER2 A775_G776insYVMA cells (Homo sapiens, UniProt P04626, DUP772-775, cells depend on it); test: Inhibition of cell proliferation, CTG method, Ba/F3 HER2 A775_G776insYVMA; format: cell-based; settings: 72 hours, read-out: Ba/F3 HER2 A775-G776insYVMA IC50
How it was run: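 Ba/F3 HER2 A775_G776insYVMA cells in RPMI1640 with 10% FBS were plated at 3000 cells/well and treated directly with compound (top 10 μM, 4-fold, 9 concentrations, duplicates).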

[2] = molecular target: Ba/F3 EGFR D770_N771insSVD cells (Homo sapiens, UniProt P00533, DUP768-770, cells depend on it); test: Inhibition of cell proliferation, CTG method, Ba/F3 EGFR D770_N771insSVD; format: cell-based; settings: 72 hours, read-out: Ba/F3 EGFR D770_N771insSVD IC50
Source text: (§1) The present application examined the in vitro anti-proliferative activity of the compounds of the present disclosure against in vitro cultured BT474, NCI-N87, Ba/F3-EGFR-VIII and Ba/F3 HER2 A775_G776insYVMA and Ba/F3 EGFR D770_N771insSVD cell lines by CTG method.
(§2) Reagents and consumables: RPMI1640 (ThermoFisher, Cat. No. C11875500BT); fetal bovine serum (Hyclone, Cat. No. SV30087.03); 0.25% trypsin-EDTA (ThermoFisher, Cat. No. 25200-072); penicillin-streptomycin (Hyclone, Cat. No. SV30010); DMSO (Amresco, Cat. No. 0231-500ML); CTG assay kit (Promega, Cat. No. G924C); 96-well plate (Corning, Cat. No. 3603); multifunctional plate reader (Perkin Elmer, Cat. No. Envision)
(§3) Cell lines: BT474 (from the cell bank of Chinese Academy of Sciences), NCI-N87 (from ATCC), Ba/F3-EGFR-VIII, Ba/F3 HER2 A775_G776insYVMA and Ba/F3 EGFR D770_N771insSVD (all from KYinno Biotechnology (Beijing) Co., Ltd.); all of the above cells were cultured with RPMI1640 medium containing 10% fetal bovine serum, 100 U/mL penicillin, and 100 μg/mL streptomycin in the culture process.
(§4) 1. The assay compound was dissolved with DMSO to form a stock solution and a gradient dilution was performed, followed by dilution with the corresponding medium to obtain a solution with 5-fold working concentration.
(§5) 2. Cells in logarithmic growth phase were adjusted to specific cell densities by dilution with culture medium, and 80 μL of cell suspension was added to a 96-well plate, such that plating densities of cells of BT474, NCI-N87, Ba/F3-EGFR-VIII, Ba/F3 HER2 A775_G776insYVMA and Ba/F3 EGFR D770_N771insSVD were all 3000 cells/well. The cells of Ba/F3-EGFR-VIII, Ba/F3 HER2 A775_G776insYVMA and Ba/F3 EGFR D770_N771insSVD were used directly in the next step (treatment with compound), whereas the BT474 and NCI-N87 needed to be cultured overnight in a 37° C., 5% carbon dioxide gas incubator to adhere to the wall, and then treated with compounds.
(§6) 3. 20 μL of compound solution was added to each well of the 96-well plate that had been inoculated with cells. The highest concentration of the assayed compound was 10 μM, 4-fold serial dilution, a total of 9 concentrations, and duplicate wells. A control group without compound was also set up.
(§7) 4. The cells were cultured for another 72 hours, and then cell viability was detected by CTG assay kit. Signal values were read with a multifunctional plate reader (Perkin Elmer). GraphPad Prism software was used to create a dose-response curve and IC50 was calculated.

HER2 kinase = molecular target: T1, HER2 kinase (Homo sapiens, UniProt P04626); test: HER2 kinase assay (ULight/PT66 TR-FRET); format: biochemical
T1 construct: purchased Carna Biosciences 08-016
How it was run: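 HER2 kinase preincubated 5 min with compounds (11-point 3-fold series, duplicates), then reacted 120 min at room temperature with ATP and ULight-poly GT peptide, each prepared at 4× working concentration (40 μM ATP, 400 nM substrate, 40 nM kinase). PT66 antibody added for 60 min, TR-FRET read; IC50 from inhibition curves.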

EGFR^WT kinase = EGFR^WT kinase (Homo sapiens, UniProt P00533); test: EGFR^WT kinase assay (ULight/PT66 TR-FRET); format: biochemical
How it was run: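 Enzyme preincubated 5 min with compound (11-point 3-fold series, duplicate), then ULight-JAK-1 (Tyr1023) peptide and ATP added at 4× stocks of 400 nM and 600 μM; 120 min reaction at room temperature. PT66 antibody TR-FRET read after 60 min; IC50 fitted from inhibition rates.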

[3] = tested on: Ba/F3 ERBB2 A775_G776insYVMA; test: Efficacy in nude mouse tumor-bearing model of Ba/F3 ERBB2 A775_G776insYVMA; format: in vivo, BALB/c nude mice; settings: 30 mg/kg, QD×15, PO; day 15
Protocol: In this assay, some compounds of the application were orally administered to a nude mouse tumor-bearing model of Ba/F3 ERBB2 A775_G776insYVMA to study the effect of the compounds of the application on tumor growth.
Preparation of the assay compound: an appropriate weight of the compound to be assayed was weighed, and completely dissolved in an appropriate volume of vehicle (DMSO). The mixture was vortexed or sonicated. Then an appropriate amount of Solutol was added and mixed well. Finally, sterilized drinking water was added and the mixture was mixed by stirring or vortexing to obtain a homogeneous solution or suspension.
Method: All the assays were authorized and agreed by the Animal Welfare Committee. Ba/F3 ERBB2 A775_G776insYVMA in a logarithmic growth period was inoculated subcutaneously into the right back of immunodeficient nude mice (BALB/c nude, female, 6-7 weeks of age, body weight 18±2 g) with 4×10^6 cells/rat. After the tumor grew to 150-200 mm^3, the animals were randomly divided into a treatment group and a control group. For the treatment group, a solution of each assay compound was given, and for the control group, a vehicle solution without the assay compound was given. Both of the treatment group and the control group were administered once a day for about 2 weeks. The dose of each assay article was 30 mg/kg (in terms of effective compound concentration), and the assay compounds were all prepared freshly for use. During the assay, the diameter of loaded tumors was measured twice a week, and the mice were weighed at the same time. The tumor volume (TV) was calculated by the formula: TV=½×a×b^2, where a and b denote length and width, respectively. Relative tumor volume (RTV) was calculated based on the measured results by the formula: RTV=Vt/V0, where V0 is the tumor volume measured at grouping and administration and Vt is the tumor volume at each measurement. The evaluation index of antitumor activity was the relative tumor proliferation rate T/C (%) calculated by the formula: T/C (%)=(TRTV/CRTV)×100%, TRTV: RTV of the administration group; CRTV: RTV of the control group. T and C denote the average tumor volume at a certain time point in the administration group and the control group, respectively.

BT474 cells = test: Inhibition of cell proliferation, CTG method, BT474; format: cell-based; settings: Homo sapiens, BT-474, 72 hours, read-out: hBT474 IC50
Source text: as §1, §2, §3
1. […]
as §7

NCI-N87 cells = test: Inhibition of cell proliferation, CTG method, NCI-N87; format: cell-based; settings: Homo sapiens, 72 hours, read-out: hNCI-N87 IC50
Source text: as §1, §2, §3, §4, §5, §6, §7

Ba/F3-EGFR-VIII cells = Ba/F3-EGFR-VIII cells (Homo sapiens, UniProt P00533, DELINS30-297G, cells depend on it); test: Inhibition of cell proliferation, CTG method, Ba/F3-EGFR-VIII; format: cell-based; settings: 72 hours, read-out: Ba/F3 EGFRvIII IC50
Source text: as §1, §2, §3
1. […]
as §7

T1 sequence (P04626 23-1255): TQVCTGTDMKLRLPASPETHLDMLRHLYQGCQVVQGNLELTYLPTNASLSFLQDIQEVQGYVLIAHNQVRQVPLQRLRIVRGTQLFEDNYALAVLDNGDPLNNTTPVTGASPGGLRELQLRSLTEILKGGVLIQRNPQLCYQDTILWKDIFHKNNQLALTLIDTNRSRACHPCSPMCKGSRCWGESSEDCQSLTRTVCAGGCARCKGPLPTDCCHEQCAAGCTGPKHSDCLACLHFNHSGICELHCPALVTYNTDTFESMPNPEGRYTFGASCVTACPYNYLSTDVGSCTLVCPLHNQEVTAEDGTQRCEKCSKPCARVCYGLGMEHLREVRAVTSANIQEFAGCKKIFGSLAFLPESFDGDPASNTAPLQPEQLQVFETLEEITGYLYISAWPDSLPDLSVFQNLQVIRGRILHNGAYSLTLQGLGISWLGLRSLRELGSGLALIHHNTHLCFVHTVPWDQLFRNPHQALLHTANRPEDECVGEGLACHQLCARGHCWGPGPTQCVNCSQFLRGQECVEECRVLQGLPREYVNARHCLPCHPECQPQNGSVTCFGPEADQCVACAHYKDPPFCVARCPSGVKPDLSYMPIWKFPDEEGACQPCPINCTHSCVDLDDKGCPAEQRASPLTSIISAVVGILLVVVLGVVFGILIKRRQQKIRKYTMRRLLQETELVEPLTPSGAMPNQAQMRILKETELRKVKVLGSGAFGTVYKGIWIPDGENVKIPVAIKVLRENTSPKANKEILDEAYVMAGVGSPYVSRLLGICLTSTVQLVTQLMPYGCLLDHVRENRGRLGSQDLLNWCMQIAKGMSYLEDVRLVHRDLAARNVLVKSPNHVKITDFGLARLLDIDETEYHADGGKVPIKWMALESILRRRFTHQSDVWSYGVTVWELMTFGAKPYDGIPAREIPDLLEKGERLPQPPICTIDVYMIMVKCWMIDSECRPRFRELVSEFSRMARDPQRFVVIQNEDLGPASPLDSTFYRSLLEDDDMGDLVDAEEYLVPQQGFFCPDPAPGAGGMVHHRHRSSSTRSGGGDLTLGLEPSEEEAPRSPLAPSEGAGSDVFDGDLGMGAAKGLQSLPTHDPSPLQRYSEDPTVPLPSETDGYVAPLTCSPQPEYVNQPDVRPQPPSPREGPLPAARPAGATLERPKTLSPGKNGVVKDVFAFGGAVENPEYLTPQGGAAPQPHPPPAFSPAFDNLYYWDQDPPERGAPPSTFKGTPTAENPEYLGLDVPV
Ba/F3 EGFR D770_N771insSVD cells, sequence (P00533 with tags, fused parts or gaps DUP768-770): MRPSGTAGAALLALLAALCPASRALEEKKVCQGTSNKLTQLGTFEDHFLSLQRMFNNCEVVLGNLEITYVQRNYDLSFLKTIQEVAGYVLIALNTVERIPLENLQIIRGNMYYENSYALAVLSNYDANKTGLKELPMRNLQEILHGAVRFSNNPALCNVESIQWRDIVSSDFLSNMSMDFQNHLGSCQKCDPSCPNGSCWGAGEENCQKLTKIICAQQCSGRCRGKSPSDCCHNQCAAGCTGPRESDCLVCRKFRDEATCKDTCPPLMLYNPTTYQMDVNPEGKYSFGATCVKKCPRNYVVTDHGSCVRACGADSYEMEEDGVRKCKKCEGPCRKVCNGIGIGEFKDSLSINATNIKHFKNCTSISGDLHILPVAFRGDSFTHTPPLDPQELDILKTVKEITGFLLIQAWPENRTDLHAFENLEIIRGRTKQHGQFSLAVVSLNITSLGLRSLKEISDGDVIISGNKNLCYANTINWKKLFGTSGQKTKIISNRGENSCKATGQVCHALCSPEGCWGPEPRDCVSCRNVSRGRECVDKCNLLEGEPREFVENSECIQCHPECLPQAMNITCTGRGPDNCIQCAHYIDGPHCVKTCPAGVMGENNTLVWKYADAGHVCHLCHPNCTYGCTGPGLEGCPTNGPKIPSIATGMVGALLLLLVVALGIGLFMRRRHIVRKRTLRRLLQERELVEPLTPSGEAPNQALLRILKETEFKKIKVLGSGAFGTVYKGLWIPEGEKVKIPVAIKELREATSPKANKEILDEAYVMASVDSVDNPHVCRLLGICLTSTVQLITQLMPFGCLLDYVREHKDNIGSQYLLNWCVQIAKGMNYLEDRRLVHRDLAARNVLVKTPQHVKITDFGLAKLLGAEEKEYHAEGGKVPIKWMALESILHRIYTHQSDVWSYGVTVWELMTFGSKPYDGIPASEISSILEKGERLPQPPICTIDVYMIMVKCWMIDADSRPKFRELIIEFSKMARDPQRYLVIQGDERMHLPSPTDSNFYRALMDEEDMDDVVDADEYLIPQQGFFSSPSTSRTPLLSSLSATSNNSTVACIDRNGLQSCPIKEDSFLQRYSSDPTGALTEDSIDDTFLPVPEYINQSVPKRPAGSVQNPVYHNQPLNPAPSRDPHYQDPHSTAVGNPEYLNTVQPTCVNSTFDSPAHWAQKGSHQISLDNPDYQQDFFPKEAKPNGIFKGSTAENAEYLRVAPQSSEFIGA
Ba/F3 HER2 A775_G776insYVMA cells, sequence (P04626 with tags, fused parts or gaps DUP772-775): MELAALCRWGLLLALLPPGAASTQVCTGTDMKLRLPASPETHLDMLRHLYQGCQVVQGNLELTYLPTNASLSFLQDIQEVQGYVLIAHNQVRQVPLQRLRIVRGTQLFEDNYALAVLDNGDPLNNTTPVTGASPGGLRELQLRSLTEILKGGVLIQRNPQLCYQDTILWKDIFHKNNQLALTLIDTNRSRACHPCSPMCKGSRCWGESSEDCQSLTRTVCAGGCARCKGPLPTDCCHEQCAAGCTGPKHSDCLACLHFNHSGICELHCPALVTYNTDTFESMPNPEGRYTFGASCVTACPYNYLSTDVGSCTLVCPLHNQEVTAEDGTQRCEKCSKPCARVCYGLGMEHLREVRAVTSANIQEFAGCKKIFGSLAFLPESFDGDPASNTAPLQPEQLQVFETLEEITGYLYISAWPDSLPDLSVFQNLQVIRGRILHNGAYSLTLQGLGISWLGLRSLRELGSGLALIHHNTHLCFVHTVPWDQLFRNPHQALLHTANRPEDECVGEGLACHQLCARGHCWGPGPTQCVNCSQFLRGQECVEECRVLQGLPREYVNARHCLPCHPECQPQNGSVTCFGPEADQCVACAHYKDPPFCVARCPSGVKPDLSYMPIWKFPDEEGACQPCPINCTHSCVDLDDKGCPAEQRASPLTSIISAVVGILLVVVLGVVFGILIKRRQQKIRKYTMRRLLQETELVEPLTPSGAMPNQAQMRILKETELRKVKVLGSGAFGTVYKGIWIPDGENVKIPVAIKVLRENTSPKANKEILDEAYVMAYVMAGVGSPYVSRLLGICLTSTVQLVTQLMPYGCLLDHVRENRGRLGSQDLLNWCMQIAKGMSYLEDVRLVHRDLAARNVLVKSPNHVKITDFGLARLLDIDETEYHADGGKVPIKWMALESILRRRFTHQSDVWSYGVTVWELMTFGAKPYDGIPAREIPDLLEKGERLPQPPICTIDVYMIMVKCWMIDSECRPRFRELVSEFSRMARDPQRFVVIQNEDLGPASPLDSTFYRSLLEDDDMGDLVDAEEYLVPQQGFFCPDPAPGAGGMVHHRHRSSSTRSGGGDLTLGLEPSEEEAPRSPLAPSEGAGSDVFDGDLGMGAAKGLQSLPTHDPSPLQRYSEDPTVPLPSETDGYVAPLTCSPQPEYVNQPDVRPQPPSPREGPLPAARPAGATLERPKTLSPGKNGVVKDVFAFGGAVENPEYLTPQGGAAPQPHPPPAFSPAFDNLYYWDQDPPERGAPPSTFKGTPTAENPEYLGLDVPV
EGFR^WT kinase, sequence (P00533 25-1210): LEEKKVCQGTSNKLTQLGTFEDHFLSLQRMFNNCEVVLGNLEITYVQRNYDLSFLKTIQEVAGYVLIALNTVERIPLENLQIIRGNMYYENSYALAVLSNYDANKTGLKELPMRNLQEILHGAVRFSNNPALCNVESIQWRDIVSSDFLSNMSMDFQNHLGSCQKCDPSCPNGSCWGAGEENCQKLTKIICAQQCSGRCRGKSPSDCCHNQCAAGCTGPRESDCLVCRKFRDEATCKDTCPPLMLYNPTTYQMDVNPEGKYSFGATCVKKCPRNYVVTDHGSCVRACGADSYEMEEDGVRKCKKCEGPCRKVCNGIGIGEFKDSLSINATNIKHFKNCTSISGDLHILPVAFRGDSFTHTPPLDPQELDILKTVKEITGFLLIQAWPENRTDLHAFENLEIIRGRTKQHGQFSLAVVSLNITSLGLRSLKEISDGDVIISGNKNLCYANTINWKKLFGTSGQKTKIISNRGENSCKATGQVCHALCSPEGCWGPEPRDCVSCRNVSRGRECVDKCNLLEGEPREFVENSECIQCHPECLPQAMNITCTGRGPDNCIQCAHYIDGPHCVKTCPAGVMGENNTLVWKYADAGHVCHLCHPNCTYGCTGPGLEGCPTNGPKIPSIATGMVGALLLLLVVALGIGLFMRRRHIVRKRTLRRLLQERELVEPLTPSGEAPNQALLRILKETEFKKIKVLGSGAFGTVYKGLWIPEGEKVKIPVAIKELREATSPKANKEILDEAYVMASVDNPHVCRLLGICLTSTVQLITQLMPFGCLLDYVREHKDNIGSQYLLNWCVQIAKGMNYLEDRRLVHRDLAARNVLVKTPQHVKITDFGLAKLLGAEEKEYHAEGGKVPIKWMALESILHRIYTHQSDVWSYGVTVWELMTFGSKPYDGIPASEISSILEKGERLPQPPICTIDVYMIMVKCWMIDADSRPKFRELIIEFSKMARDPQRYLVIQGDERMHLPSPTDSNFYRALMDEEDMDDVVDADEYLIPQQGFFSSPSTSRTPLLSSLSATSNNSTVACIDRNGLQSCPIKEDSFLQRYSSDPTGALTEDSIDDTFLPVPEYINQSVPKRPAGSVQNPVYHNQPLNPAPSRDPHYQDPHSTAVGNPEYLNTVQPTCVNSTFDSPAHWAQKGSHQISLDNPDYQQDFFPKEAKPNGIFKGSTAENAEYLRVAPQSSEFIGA

SMILES	GI50 [1]	GI50 [2]	pIC50 (HER2 kinase)	pIC50 (EGFR^WT kinase)	pIC50 (BT474 cells)	GI50 (Ba/F3-EGFR-VIII cells)	T/C (%) [3]	pIC50 (NCI-N87 cells)
CCOc1c(NC(=O)/C=C/[C@H]2CCCN2C)ccc2ncnc(Nc3ccc(OCc4ccccn4)c(Cl)c3)c12 [Example 5, (R,E)-N-(4-((3-chloro-4-(pyridin-2-ylmethoxy)phenyl)amino)-5-ethoxyquinazolin-6-yl)-3-(1-methylpyrrolidin-2-yl)acrylamide]	< 1 nM	–	> 8.00	7.00 to 8.00	7.00 to 8.00	–	–	8.30 to 9.00
COc1c(NC(=O)/C=C/CN(C)C)ccc2ncnc(Nc3ccc(OCc4cccc(F)c4)c(Cl)c3)c12 [Example 2, (E)-N-(4-((3-chloro-4-(3-fluorobenzyloxy)phenyl)amino)-5-methoxyquinazolin-6-yl)-4-(dimethylamino)but-2-enamide]	1 to 5 nM	10 to 100 nM	> 8.00	> 8.00	–	–	–	8.30 to 9.00
COc1c(NC(=O)/C=C/CN(C)C)ccc2ncnc(Nc3ccc(OCc4ccccn4)c(Cl)c3)c12 [Example 1, (E)-N-(4-((3-chloro-4-(pyridin-2-ylmethoxy)phenyl)amino)-5-methoxyquinazolin-6-yl)-4-(dimethylamino)but-2-enamide]	1 to 5 nM	–	> 8.00	> 8.00	–	1 to 5 nM	–	8.30 to 9.00

Now from value to compound, other results behind:

GI50 [1]	GI50 [2]	pIC50 (HER2 kinase)	pIC50 (EGFR^WT kinase)	pIC50 (BT474 cells)	GI50 (Ba/F3-EGFR-VIII cells)	SMILES	T/C (%) [3]	pIC50 (NCI-N87 cells)
1 to 5 nM	10 to 100 nM	> 8.00	> 8.00	–	–	COCCOc1c(NC(=O)/C=C/[C@H]2CCCN2C)ccc2ncnc(Nc3ccc(OCc4ccccn4)c(Cl)c3)c12 [Example 8, (R,E)-N-(4-((3-chloro-4-(pyridin-2-ylmethoxy)phenyl)amino)-5-(2-methoxyethoxy)quinazolin-6-yl)-3-(1-methylpyrrolidin-2-yl)acrylamide]	5.83%	–
1 to 5 nM	10 to 100 nM	> 8.00	> 8.00	–	–	CN1CCC[C@@H]1/C=C/C(=O)Nc1ccc2ncnc(Nc3ccc(OCc4ccccn4)c(Cl)c3)c2c1OCCCF [Example 10, (R,E)-N-(4-((3-chloro-4-(pyridin-2-ylmethoxy)phenyl)amino)-5-(3-fluoropropoxy)quinazolin-6-yl)-3-(1-methylpyrrolidin-2-yl)acrylamide]	–	–
